Laboratory results taken from patent publication US12338263B2, “Antibacterial aminoglycoside derivatives” (priority 2019, dated 2025).
≈ marks a conversion by molar mass, not a printed value.

Experiments:
[1] = test system: E. coli ATCC 25922; assay: Antibacterial effect (MIC), micro-liquid dilution method (CLSI); type: cell-based; conditions: Escherichia coli, ATCC25922
Description: Three strains Enterobacteriaceae E. coli ATCC 25922, E. coli ATCC BAA-2523, K. pneumonia ATCC BAA-1705 were used to determine the Minimum Inhibitory Concentration (MIC) of each compound by the micro-liquid dilution method according to the requirements of the Institute of Clinical and Laboratory Standard (CLSI). 2-fold series diluted compounds (with a final concentration range […]) were added to a round bottom 96-well plate (Catalog #3788, Corning). A single clone of fresh bacteria on the plate of Mueller Hinton II Agar (MHA, Cat. No. 211438, BD BBL™) after overnight culture was picked and suspended in sterile saline to adjust the concentration to 1×10^8 CFU/mL, and then diluted to 5×10^5 CFU/mL by Cation-Adjusted Mueller Hinton II Broth (MHB, Catalog #212332, BD BBL™), 100 μL of which was added to the round bottom 96-well plate containing the drug. The plate was inverted and incubated at 37° C. for 20-24 hours, and the MIC value was read. The lowest drug concentration that inhibits bacterial growth was defined as MIC.

[2] = test system: E. coli ATCC-25922 (Enterobacteria ATCC-25922); assay: Drug efficacy in mice (mouse thigh muscle model); type: in vivo; conditions: CD-1 mice, 30 mpk subcutaneously 2 h and 10 h after infection, read at 24 h; FIG. 1
Description: 12 female CD-1 mice were divided into 4 cages, 3 mice per cage, and were injected intraperitoneally with the immunosuppressant cyclophosphamide (150 mpk).
24 hours later, 4 cages of mice were injected intraperitoneally again with the immunosuppressant cyclophosphamide (100 mpk). The strain E. coli ATCC-25922 (Enterobacteria ATCC-25922) was recovered on a MHA plate. The recovered colonies were picked and dissolved in saline to prepare E. coli ATCC-25922 bacterial solution with a concentration of 1.00E+07 CFU/mL for later use in mouse thigh muscle infection. The amount of bacterial solution injected into the thigh muscle of experimental mice was […], that is, the inoculation amount was 1.00E+06 CFU/mouse. […]
The specific administration of mice was as follows: • (1) 2 h after infection: At the end of 2 h infection, the thigh muscle tissue of the mice in the first cage was taken and placed in 10 mL saline, homogenized, and dotted on a plate with gradient dilution, two duplications for each mouse. The amount of bacteria loaded in the thigh muscle tissue of the mouse was counted. […] The amount of bacteria loaded in the thigh muscle tissue of the mouse was counted, and the experimental results were summarized and shown in FIG. 1.

[3] = test system: Klebsiella pneumoniae ATCC-BAA-1705; assay: Drug efficacy in mice (mouse pneumonia model); type: in vivo; conditions: CD-1 mice, read at 24 h, FIG. 2
Description: 21 CD-1 mice were divided into 7 cages, 3 mice per cage, and were injected intraperitoneally with the immunosuppressant cyclophosphamide (150 mpk) on the 4th day.
On the first day, 7 cages of mice were injected intraperitoneally again with the immunosuppressant cyclophosphamide (100 mpk). The strain Kpn ATCC-BAA-1705 (Klebsiella pneumoniae ATCC-BAA-1705) was recovered on a MHA plate. The recovered colonies were picked and dissolved in saline to prepare Kpn ATCC-BAA-1705 bacterial solution with a concentration of 4.00E+08 CFU/mL for later use in mouse lung infection. The amount of bacterial solution infected in the lung of experimental mice was 50 μL/mouse, that is, the inoculation amount was 2.00E+07 CFU/mouse. At 2 h and 24 h infection, the lung tissue of the mice in control group was taken and placed in 5 mL saline, homogenized, and dotted on a plate with gradient dilution.
The specific administration of mice was as follows: • (1) 2 h after infection: At the end of 2 h after infection, the lung tissue of the mice in the first cage was taken and placed in 5 mL saline, homogenized, and dotted on a plate with gradient dilution, two duplications for each mouse. The amount of bacteria loaded in the lung tissue of the mouse was counted. Mice in the third and fourth cages were injected respectively with 30 mpk and 10 mpk compound Plazomicin subcutaneously, mice in the fifth and sixth cages were injected respectively with 30 mpk and 10 mpk compound subcutaneously, and mice in the seventh cage were injected with 100 mpk meropenem subcutaneously. • (2) 10 h after infection: Mice in the third and fourth cages were injected respectively with 30 mpk and 10 mpk plazomicin subcutaneously, mice in the fifth and sixth cages were injected respectively with 30 mpk and 10 mpk compound 1 subcutaneously, and mice in the seventh cage were injected with 100 mpk meropenem subcutaneously. At the end of 24 h infection, the lung tissue of the mice in the second to seventh cages was taken and placed in 5 mL saline, homogenized, and dotted on a plate with gradient dilution, two duplications for each mouse. The amount of bacteria carried in the lung tissue of the mouse was counted, and the experimental results were summarized and shown in FIG. 2.

[4] = test system: spiral ganglion neurons; assay: Auditory safety: density of spiral ganglion neurons; type: in vivo, guinea pigs; conditions: guinea pig, in vivo, sc, 100 mg/kg
Description: Healthy adult guinea pigs (150-250 g) were employed as the research objects, and were randomly divided into saline control group, gentamicin group, compound Plazomicin group and Compound 1 group, with 8 animals in each group. Subcutaneous administration is used, and the following assays were carried out during and after the administration for 14 consecutive days: • 1. To analyze the effects of different drugs on the auditory function of guinea pigs, the compound action potential (CAP) of animals was recorded on the 14th day (29th day, i.e., 4 weeks) after administration. The results obtained were analyzed and the changes of the threshold shift, amplitude, latency and other indicators among different treatment groups were compared. • 2. After the different groups of animals were processed and the auditory function data thereof were collected, the cochlea of the animals was taken out for fixation and staining. Surface preparation of basilar membrane of the cochlea on one side was performed to count the loss of hair cells so as to make a cochlea map, and the cochlea on the other side was decalcified and frozen sectioned. The density of spiral ganglion neurons was counted and compared among groups. Research Results: 1. Administration Method and Treatment
Gentamicin from Dalian Meilun Biotechnology Co., Ltd., and Plazomicin and Compound 1 from WuXi AppTec (WuHan) Co., Ltd. are used, the solution of which were prepared just before use each time by using saline for dissolution to the concentration of 50 mg/mL, and the injection dose was 100 mg/kg body weight. Method: subcutaneous injection, and confirmation of no liquid leakage after each injection.
The cochlea of the guinea pig was defined as Turn 1, Turn 2, Turn 3, and Turn 4 from the basal to the apical turn. The spiral ganglion neurons (SGNs) were stained with TuJ on frozen sections, and the density thereof in a specific area were counted and compared between groups. […] Through the two-way ANOVA, there was a significant difference between the groups, F(3, 74)=35.43, p<0.0001 (see FIG. 7).

SMILES: CN[C@@H]1[C@@H](O)[C@@H](O[C@@H]2[C@@H](O)[C@H](O[C@H]3OC(CNCCOCCONC(=N)N)=CC[C@H]3N)[C@@H](N)C[C@H]2NC(=O)[C@@H](O)CCN)OC[C@]1(C)O [Compound 1]
- MIC [1]: 2 µM (≈ 1.39 µg/mL)
- in vivo efficacy (bacteria loaded in thigh muscle tissue), compared with Plazomicin [2]: better in vivo efficacy than Plazomicin
- in vivo activity in lung infection model (bacteria in lung tissue) ([3]; 10 mpk and 30 mpk subcutaneously 2 h and 10 h after infection): good in vivo activity
- efficacy at a dose of 10 mpk in lung infection model ([3]; 10 mpk subcutaneously 2 h and 10 h after infection): equivalent to that of Plazomicin at a dose of 30 mpk
- efficacy compared with Plazomicin in lung infection model ([3]; subcutaneously 2 h and 10 h after infection): better than that of Plazomicin
- damage to spiral ganglion neurons (SGN density vs Control group) [4]: no damage to spiral ganglion neurons
